Reference: ChEMBL document CHEMBL1687869, “Cycloartane triterpenes isolated from Combretum quadrangulare in a screening program for death-receptor expression enhancing activity” (2011)
Active and inactive are the calls of the source. The calls are words filed in the database; no cut-off is given here.

What was measured:
[1] = target: Tumor necrosis factor receptor superfamily member 10B (Homo sapiens) (UniProt O14763); test: Increase in DR5 promoter activity in SacI gene expressing human DLD1 cells at 17.5 uM after 24 hrs by luciferase reporter gene assay relative to control; type: cell-based; settings: DLD-1
Chain of Tumor necrosis factor receptor superfamily member 10B (Homo sapiens) (O14763 whole entry): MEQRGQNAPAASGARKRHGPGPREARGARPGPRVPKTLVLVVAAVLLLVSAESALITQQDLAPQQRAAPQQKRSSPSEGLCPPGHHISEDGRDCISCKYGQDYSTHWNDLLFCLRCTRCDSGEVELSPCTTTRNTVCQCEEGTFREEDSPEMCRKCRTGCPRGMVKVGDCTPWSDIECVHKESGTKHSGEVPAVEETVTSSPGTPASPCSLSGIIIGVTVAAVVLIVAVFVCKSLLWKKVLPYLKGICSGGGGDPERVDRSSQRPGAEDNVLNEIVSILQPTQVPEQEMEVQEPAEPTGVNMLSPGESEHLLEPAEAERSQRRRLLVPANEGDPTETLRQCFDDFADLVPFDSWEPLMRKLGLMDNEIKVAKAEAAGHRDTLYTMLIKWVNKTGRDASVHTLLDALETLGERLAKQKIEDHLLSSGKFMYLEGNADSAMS

AGS [2] = test: Cytotoxicity against TRAIL-resistant human AGS cells assessed as cell viability at 17.5 uM after 24 hrs by fluorometric microculture assay; type: functional; settings: read-out: Activity
AGS [3] = test: Cytotoxicity against TRAIL-resistant human AGS cells assessed as cell viability at 17.5 uM after 24 hrs by fluorometric microculture assay in presence of 100 ng/ml TRAIL; type: functional
AGS [4] = test: Cytotoxicity against TRAIL-resistant human AGS cells assessed as cell viability at 12.5 uM after 24 hrs by fluorometric microculture assay in presence of 100 ng/ml TRAIL; type: functional
[5] = target: Tumor necrosis factor receptor superfamily member 10B (Homo sapiens) (UniProt O14763); test: Increase in DR5 promoter activity in SacI gene expressing human DLD1 cells at 17.5 to 70 uM after 24 hrs by luciferase reporter gene assay relative to control; type: cell-based; settings: DLD-1

SMILES: O=c1cc(-c2ccc(O)c(O)c2)oc2cc(O)cc(O)c12 [LUTEOLIN]
- Activity [1]: Active
- viability at 17.5 µM (AGS [2]): 51%

SMILES: COc1ccc(-c2oc3cc(O)cc(O)c3c(=O)c2OC)cc1O
- Activity (AGS [3]): 24%
- Activity (AGS [4]): 27%
- fold change (FC) [5]: 6.7

SMILES: COc1cc(-c2oc3cc(O)cc(O)c3c(=O)c2OC)cc(O)c1OC
- fold change (FC) [5]: 2.2

SMILES: C=C(C)[C@@H](O)CC[C@@H](C)[C@H]1CC[C@@]2(C)[C@@H]3[C@@H](OC(C)=O)C[C@H]4[C@](C)(C(=O)O)[C@@H](O)CC[C@@]45C[C@@]35CC[C@]12C
- fold change (FC) [5]: 1.7

SMILES: COc1c(O)cc(-c2oc3cc(O)cc(O)c3c(=O)c2OC)cc1O
- fold change (FC) [5]: 2

SMILES: COC(C)(C)/C=C/C[C@@H](C)[C@H]1CC[C@@]2(C)[C@@H]3[C@@H](O)C[C@H]4C(C)(C)C(=O)CC[C@@]45C[C@@]35CC[C@]12C
- fold change (FC) [5]: 2.5
